Source: PubChem BioAssay AID248 (DTP/NCI, 2004)
Inconclusive results and toxic doses are left out. Cut-off read from the data, not from the text of the source: active = T/C of 150% or more; inactive = T/C below 125%.

System: L1210 leukemia ip in BDF1 mice, survival T/C
Assay: NCI In Vivo Anticancer Drug Screen. Data for tumor model L1210 Leukemia (intraperitoneal) in B6D2F1 (BDF1) mice
Settings: endpoint: mean survival time, higher = longer survival
Procedure, shortened: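 Read-out is survival time, reported as the treated-group measurement over the vehicle-control measurement.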

[1] = dose: 200.0 mg/kg/injection, schedule: Q01DX001 (ip), vehicle: saline
[2] = dose: 100.0 mg/kg/injection, schedule: Q04DX003 (ip), vehicle: Klucel (hydroxypropylcellulose) (HPC)
[3] = dose: 200.0 mg/kg/injection, schedule: Q04DX003 (ip), vehicle: Klucel (hydroxypropylcellulose) (HPC)
[4] = dose: 100.0 mg/kg/injection, schedule: Q01DX009 (ip), vehicle: saline with Tween-80
[5] = dose: 100.0 mg/kg/injection, schedule: Q04DX003 (ip), vehicle: saline with Tween-80
[6] = dose: 200.0 mg/kg/injection, schedule: Q01DX009 (ip), vehicle: saline with Tween-80
[7] = dose: 200.0 mg/kg/injection, schedule: Q04DX003 (ip), vehicle: saline with Tween-80
[8] = dose: 400.0 mg/kg/injection, schedule: Q04DX003 (ip), vehicle: saline with Tween-80
[9] = dose: 100.0 mg/kg/injection, schedule: Q01DX001 (ip), vehicle: saline
[10] = dose: 100.0 mg/kg/injection, schedule: Q04DX002 (ip), vehicle: Klucel (hydroxypropylcellulose) (HPC)
[11] = dose: 200.0 mg/kg/injection, schedule: Q04DX002 (ip), vehicle: Klucel (hydroxypropylcellulose) (HPC)
[12] = dose: 400.0 mg/kg/injection, schedule: Q04DX002 (ip), vehicle: Klucel (hydroxypropylcellulose) (HPC)

Measured: T/C

Clc1ccc2c(c1)Cc1cc(N=Cc3ccccc3Cl)ccc1-2
inactive: dose: 12.5 mg/kg/injection, schedule: Q01DX001 (ip), vehicle: saline 97 % of control | dose: 12.5 mg/kg/injection, schedule: Q04DX003 (ip), vehicle: saline 92 % of control | dose: 25.0 mg/kg/injection, schedule: Q01DX001 (ip), vehicle: saline 87 % of control | dose: 25.0 mg/kg/injection, schedule: Q04DX003 (ip), vehicle: saline 93 % of control | dose: 50.0 mg/kg/injection, schedule: Q01DX001 (ip), vehicle: saline 106 % of control | dose: 50.0 mg/kg/injection, schedule: Q04DX003 (ip), vehicle: saline 87 % of control | dose: 65.0 mg/kg/injection, schedule: Q01DX Z (ip), vehicle: carboxymethylcellulose (CMC) 90 % of control | dose: 75.0 mg/kg/injection, schedule: Q04DX003 (ip), vehicle: saline 101 % of control | dose: 115.0 mg/kg/injection, schedule: Q04DX003 (ip), vehicle: saline 89 % of control | dose: 125.0 mg/kg/injection, schedule: Q01DX Z (ip), vehicle: carboxymethylcellulose (CMC) 96 % of control | dose: 170.0 mg/kg/injection, schedule: Q04DX003 (ip), vehicle: saline 103 % of control | [1] 89 % of control | dose: 250.0 mg/kg/injection, schedule: Q01DX Z (ip), vehicle: carboxymethylcellulose (CMC) 102 % of control | dose: 500.0 mg/kg/injection, schedule: Q01DX Z (ip), vehicle: carboxymethylcellulose (CMC) 102 % of control

O=C(Cc1cccc([N+](=O)[O-])c1)Nc1ccccc1
inactive: dose: 100.0 mg/kg/injection, schedule: Q01DX009 (ip), vehicle: Klucel (hydroxypropylcellulose) (HPC) 91 % of control | [2] 96 % of control | dose: 200.0 mg/kg/injection, schedule: Q01DX009 (ip), vehicle: Klucel (hydroxypropylcellulose) (HPC) 98 % of control | [3] 96 % of control | dose: 400.0 mg/kg/injection, schedule: Q01DX009 (ip), vehicle: Klucel (hydroxypropylcellulose) (HPC) 93 % of control | dose: 400.0 mg/kg/injection, schedule: Q04DX003 (ip), vehicle: Klucel (hydroxypropylcellulose) (HPC) 102 % of control

Cc1nc2c(NC(=O)C(F)(F)F)nn(C)c2nc1C
inactive: [4] 94 % of control | [5] 100 % of control | [6] 92 % of control | [7] 100 % of control | [8] 106 % of control

CN(C)C(=S)N1CC2C3CCC(O3)C2C1 (stereo not drawn)
inactive: [2] 95 % of control | [3] 104 % of control

C=C1CC2CC(C)CCC2OC1=O (stereo not drawn)
inactive: [9] 102 % of control | [1] 98 % of control | dose: 400.0 mg/kg/injection, schedule: Q01DX001 (ip), vehicle: saline 98 % of control

CC1(C)[C@@H]2CC[C@@]1(CS(=O)(=O)O)C(=O)C2
inactive: dose: 100.0 mg/kg/injection, schedule: Q04DX002 (ip), vehicle: other 95 % of control | dose: 200.0 mg/kg/injection, schedule: Q04DX002 (ip), vehicle: other 92 % of control

CCOc1ccc(C(=O)CCN2CCOCC2)cc1
inactive: [9] 100 % of control | [1] 118 % of control

Cc1ccc(C(=O)O)cc1S(=O)(=O)Cl
inactive: dose: 50.0 mg/kg/injection, schedule: Q01DX009 (ip), vehicle: saline with Tween-80 113 % of control | [4] 98 % of control | [5] 102 % of control | [6] 95 % of control | [7] 87 % of control | [8] 92 % of control

CC(C)CCc1c(N)nc(NCCCc2ccccc2)nc1N
inactive: dose: 100.0 mg/kg/injection, schedule: Q01DX001 (ip), vehicle: Klucel (hydroxypropylcellulose) (HPC) 91 % of control | dose: 200.0 mg/kg/injection, schedule: Q01DX001 (ip), vehicle: Klucel (hydroxypropylcellulose) (HPC) 103 % of control

O=[N+]([O-])c1ccc2sc3ccccc3c2c1
inactive: [10] 108 % of control | [11] 97 % of control | [12] 101 % of control

O=C(O)CC(c1ccccc1)C(Nc1ccc2ccccc2c1)C(=O)O (stereo not drawn)
inactive: [10] 89 % of control | [11] 100 % of control | [12] 96 % of control
